Assay results reported in the supplement of paper PMC10307832.

Legend:
Test in all cases: relative viability (nuclei count vs DMSO), 5 days (fraction); higher = more cells survive
[1] = system: LCLC-103H
Method in brief: (§1)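 Cells from lung cancer lines were seeded into 1536-well plates and, one day later, dosed by pin tool. Treatments were either a single drug or a fixed dose of an anchor drug with five library-drug doses (not always all listed) in √10 steps. After 5 days, nuclei were stained in a one-step fixation (final 0.05% Triton X-100, 1% formaldehyde, 1 ug/ml Hoechst) and counted on 4× images, and relative viability is the treated-to-vehicle nuclei ratio, as the median of duplicate plates.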

[2] = system: LXF-289
Method in brief: as §1

[3] = system: NCI-H1355
Method in brief: as §1

[4] = system: NCI-H1563
Method in brief: as §1

[5] = system: NCI-H1651
Method in brief: as §1

[6] = system: NCI-H1755
Method in brief: as §1

[7] = system: NCI-H1792
Method in brief: as §1

[8] = system: NCI-H1915
Method in brief: as §1

[9] = system: NCI-H2170
Method in brief: as §1

[10] = system: NCI-H2347
Method in brief: as §1

[11] = system: NCI-H3122
Method in brief: as §1

[12] = system: NCI-H322M; conditions: first compound 0.005 µM
Method in brief: as §1

CC1(C)CCC(c2ccc(Cl)cc2)=C(CN2CCN(c3ccc(C(=O)NS(=O)(=O)c4ccc(N[C@H](CCN5CCOCC5)CSc5ccccc5)c(S(=O)(=O)C(F)(F)F)c4)cc3)CC2)C1 [Navitoclax] + Cc1nc(Nc2ncc(C(=O)Nc3c(C)cccc3Cl)s2)cc(N2CCN(CCO)CC2)n1 [Dasatinib] (partner 0.075 µM)
relative viability ([1]; first compound 0.005 µM): 0.468
relative viability ([1]; first compound 0.01581 µM): 0.496
relative viability ([1]; first compound 0.05 µM): 0.31
relative viability ([1]; first compound 0.1581 µM): 0.539
relative viability ([1]; first compound 0.5 µM): 0.474
relative viability ([2]; first compound 0.005 µM): 0.239
relative viability ([2]; first compound 0.01581 µM): 0.308
relative viability ([2]; first compound 0.05 µM): 0.193
relative viability ([2]; first compound 0.1581 µM): 0.256
relative viability ([2]; first compound 0.5 µM): 0.201
relative viability ([3]; first compound 0.005 µM): 0.765
relative viability ([3]; first compound 0.01581 µM): 0.796
relative viability ([3]; first compound 0.05 µM): 0.753
relative viability ([3]; first compound 0.1581 µM): 0.699
relative viability ([3]; first compound 0.5 µM): 0.729
relative viability ([4]; first compound 0.005 µM): 0.464
relative viability ([4]; first compound 0.01581 µM): 0.458
relative viability ([4]; first compound 0.05 µM): 0.46
relative viability ([4]; first compound 0.1581 µM): 0.434
relative viability ([4]; first compound 0.5 µM): 0.474
relative viability ([5]; first compound 0.005 µM): 0.37
relative viability ([5]; first compound 0.01581 µM): 0.41
relative viability ([5]; first compound 0.05 µM): 0.308
relative viability ([5]; first compound 0.1581 µM): 0.455
relative viability ([5]; first compound 0.5 µM): 0.456
relative viability ([6]; first compound 0.005 µM): 0.396
relative viability ([6]; first compound 0.01581 µM): 0.416
relative viability ([6]; first compound 0.05 µM): 0.262
relative viability ([6]; first compound 0.1581 µM): 0.339
relative viability ([6]; first compound 0.5 µM): 0.281
relative viability ([7]; first compound 0.005 µM): 0.717
relative viability ([7]; first compound 0.01581 µM): 0.914
relative viability ([7]; first compound 0.05 µM): 0.64
relative viability ([7]; first compound 0.1581 µM): 0.782
relative viability ([7]; first compound 0.5 µM): 0.79
relative viability ([8]; first compound 0.005 µM): 0.323
relative viability ([8]; first compound 0.01581 µM): 0.333
relative viability ([8]; first compound 0.05 µM): 0.335
relative viability ([8]; first compound 0.1581 µM): 0.309
relative viability ([8]; first compound 0.5 µM): 0.354
relative viability ([9]; first compound 0.005 µM): 0.557
relative viability ([9]; first compound 0.01581 µM): 0.528
relative viability ([9]; first compound 0.05 µM): 0.397
relative viability ([9]; first compound 0.1581 µM): 0.595
relative viability ([9]; first compound 0.5 µM): 0.574
relative viability ([10]; first compound 0.005 µM): 0.328
relative viability ([10]; first compound 0.01581 µM): 1
relative viability ([10]; first compound 0.1581 µM): 0.262
relative viability ([10]; first compound 0.5 µM): 0.188
relative viability ([11]; first compound 0.005 µM): 0.72
relative viability ([11]; first compound 0.01581 µM): 0.838
relative viability ([11]; first compound 0.05 µM): 0.904
relative viability ([11]; first compound 0.1581 µM): 0.821
relative viability ([11]; first compound 0.5 µM): 0.682
relative viability [12]: 0.263
